Data reported in ChEMBL document CHEMBL4325849, “Identification of potential antivirulence agents by substitution-oriented screening for inhibitors of Streptococcus pyogenes sortase A” (Eur J Med Chem, 2019).
The source made the active and inactive calls. The rule behind the calls is not given here.

Test system: Streptococcus pyogenes
Experiment: Inhibition of Streptococcus pyogenes SrtA deltaN81 mutant expressed in Escherichia coli BL21(DE3) at 100 uM using Abz-LPETA-Dap(Dnp) as substrate preincubated for 10 mins followed by substrate addition measured every min for 2.5 hrs by fluorimetric assay relative to control

Structure (SMILES)	inhibition
O=Cc1c[nH]c2cc(Cl)ccc12	6.4%
CCOC(=O)c1[nH]c2cc(Cl)ccc2c1C=O	25.7%
O=Cc1nc2ccc(Cl)cc2[nH]1	19.9%
NNC(=O)c1ccnc(C(=O)NN)c1	3%
CCOC(=O)c1[nH]c2cc(Cl)ccc2c1N	12.8%
Nc1[nH]c2cc(Cl)ccc2c1C(=O)N1CCOCC1	91.6%
O=C(O)c1cc2ccccc2[nH]1	4.5%
O=C1CCN2c3ccccc3Sc3ccc(Cl)c1c32	11.1%
CC(=O)NCCc1c[nH]c2ccc(O)cc12	10.8%
O=[N+]([O-])c1cccc2[nH]ccc12	21.2%
Nc1ccc(S(=O)(=O)Nc2ccccn2)cc1	3.8%
CC(C(=O)O)c1ccc2cc(OS(C)(=O)=O)ccc2c1 (stereo not drawn)	17%
Nc1ncncc1C=O	20.7%
Cc1ccc(S(=O)(=O)/N=C/c2cc3ccc(Cl)cc3[nH]2)cc1	8.8%
O=C(O)c1[nH]c2cc(Cl)ccc2c1C(=O)Cc1ccc(Cl)cc1	28.3%
O=C(O)CCC(=O)c1ccc2ccccc2c1	86.6%
O=Cc1c[nH]c2ccccc12	1.5%
COc1ccc2[nH]cc(CCN)c2c1	-1.9%
CCOC(=O)c1[nH]c2cc(Cl)ccc2c1C(=O)CCC(=O)OC	23.8%
CCOC(=O)c1cc(-c2ccccc2)c2cccc(O)c2c1	60.2%
NC(Cc1c[nH]c2ccccc12)C(=O)O (stereo not drawn)	5.5%
CCOC(=O)NCCc1c[nH]c2ccc(OC)cc12	11.7%
Nc1[nH]c2cc(C(F)(F)F)ccc2c1C(=O)NC1CCCCC1	-6.3%
c1ccc2c3c([nH]c2c1)CNCC3	10.1%

Structure (SMILES)	inhibition
Nc1c(C(=O)N2CCOCC2)cnn1Cc1ccccc1	1%
CCOC(=O)c1[nH]c2cc(Cl)ccc2c1/C=N/c1ccccc1	3.7%
O=C(O)Cc1c[nH]cn1	-7.6%
COc1ccc(C(O)c2[nH]c3ccccc3c2CCN)cc1 (stereo not drawn)	60.8%
Cn1c2c(c3ccccc31)C(=O)NCC2	20.5%
O=C(O)Cc1c[nH]c2ccccc12	8.6%
COC(=O)c1cc2ccc(Cl)cc2[nH]1	28.2%
CC(=O)NCCc1c[nH]cn1	3.8%
O=Cc1ccc[nH]1	3.2%
NCCc1c[nH]c2ccccc12	-5.3%
O=c1cc[nH]c(=O)[nH]1	2.7%
COC(=O)c1cc2ccccc2[nH]1	5.1%
CCC(=O)c1cccs1	0.1%
O=Cc1ccc2[nH]ccc2c1	11.3%
CCOC(=O)c1cc2ccc(Cl)cc2[nH]1	15%
O=C(O)CCC(=O)c1c(C(=O)O)[nH]c2cc(Cl)ccc12	15.1%
CCOC(=O)c1[nH]c2cc(Cl)ccc2c1C(=O)O	26.3%
O=C(O)CCC(=O)c1cccs1	9.8%
CCOC(=O)c1c(C=O)c(C)n(-c2ccccc2)c1C	2.9%
Nc1[nH]c2cc(Cl)ccc2c1C(=O)NCCc1ccc(Cl)cc1	91.9%
Cn1c(=O)c2[nH]cnc2n(C)c1=O	2.3%
CC(C)NCC(O)COc1cccc2ccccc12 (stereo not drawn)	-4.2%
Nc1ncccn1	7.5%
O=C(c1cccs1)N1CCN(c2ncccn2)CC1	10.2%

Structure (SMILES)	inhibition
Oc1ccc2ncccc2c1	115%
CCOC(=O)c1[nH]c2cc(Cl)ccc2c1C#Cc1ccccc1	118%
COC(=O)c1ccnc(C(=O)OC)c1	5.5%
COc1cc(NS(=O)(=O)c2ccc(N)cc2)ncn1	12%
Nc1ncccc1CO	-0.5%
Nc1[nH]c2ccccc2c1C(=O)NC1CC1	29.2%
N#CCC(=O)c1c[nH]c2cc(F)ccc12	10.7%
CCOC(=O)c1cc2ccccc2[nH]1	16.4%
Nc1[nH]c2ccccc2c1C(=O)NCCc1ccc(Cl)cc1Cl	54.8%
COc1ccc(CCNC(=O)c2cnn(-c3ccccc3)c2N)cc1OC	4.6%
Cn1c(C(=O)O)cc2ccccc21	8.2%
CCCN1CCOC2c3c(ccc4[nH]ccc34)OCC21 (stereo not drawn)	13.4%
O=C(O)c1ccc2ccccc2n1	23.1%
CCC(=O)N1CCN(c2ncccn2)CC1	11.6%
O=C(O)c1cc2cc(Cl)ccc2[nH]1	9.1%
COc1ccc2[nH]cc(CCNC(C)=O)c2c1	16%
O=C(O)c1cc2ccccc2s1	4.5%
O=c1c2cc3cc(Cl)ccc3nc2ncn1N1CCCCC1	42.2%
O=C(O)c1cccs1	1.4%
O=Cc1c[nH]c2ccc(Cl)cc12	12.3%
Nc1c(C(=O)NCC(O)c2ccccc2)cnn1-c1ccccc1 (stereo not drawn)	35.4%
COc1cccc2c3c(ccc12)NC(=O)CC3	54.2%
Nc1nccc(O)n1	14.5%

Test system: Streptococcus pyogenes
Experiment: Inhibition of Streptococcus pyogenes SrtA deltaN81 mutant expressed in Escherichia coli BL21(DE3) at 10 uM using Abz-LPETA-Dap(Dnp) as substrate preincubated for 10 mins followed by substrate addition measured every min for 2.5 hrs by fluorimetric assay relative to control

Structure (SMILES)	inhibition
Nc1[nH]c2cc(Cl)ccc2c1C(=O)N1CCOCC1	> 50%
O=C(O)CCC(=O)c1ccc2ccccc2c1	> 50%
CCOC(=O)c1cc(-c2ccccc2)c2cccc(O)c2c1	> 50%
COc1ccc(C(O)c2[nH]c3ccccc3c2CCN)cc1 (stereo not drawn)	> 50%
Nc1[nH]c2cc(Cl)ccc2c1C(=O)NCCc1ccc(Cl)cc1	> 50%
CCOC(=O)c1[nH]c2cc(Cl)ccc2c1C#Cc1ccccc1	> 50%
Nc1[nH]c2ccccc2c1C(=O)NCCc1ccc(Cl)cc1Cl	> 50%
COc1cccc2c3c(ccc12)NC(=O)CC3	> 50%

Test system: not listed separately
Experiment: Solubility of the compound
Assay type: physicochemical

Structure (SMILES)	solubility
Nc1[nH]c2cc(Cl)ccc2c1C(=O)N1CCOCC1	Soluble

Test system: not listed separately
Experiment: (§1) Inhibition of Streptococcus pyogenes SrtA deltaN81 mutant expressed in Escherichia coli BL21(DE3) using Abz-LPETA-Dap(Dnp) as substrate preincubated for 10 mins followed by substrate addition measured every min for 2.5 hrs by fluorimetric assay

Structure (SMILES)	IC50
Nc1[nH]c2cc(Cl)ccc2c1C(=O)N1CCOCC1	10 µM

Test system: Streptococcus pyogenes
Experiment: as §1

Structure (SMILES)	inhibition
O=C(Nc1[nH]c2ccccc2c1C(=O)N1CCOCC1)c1ccccc1	inactive
Nc1[nH]c2ccccc2c1C(=O)N1CCOCC1	inactive
Nc1[nH]c2ccccc2c1C(=O)N1CCCCC1	inactive

Test system: Staphylococcus aureus
Experiment: Inhibition of […] SrtA deltaN59 mutant expressed in Escherichia coli BL21(DE3) at 100 uM using Abz-LPETG-Dap(Dnp) as substrate preincubated for 10 mins followed by substrate addition measured every min for 2.5 hrs by fluorimetric assay

Structure (SMILES)	inhibition
Nc1[nH]c2cc(Cl)ccc2c1C(=O)N1CCOCC1	inactive

Test system: Streptococcus pyogenes
Experiment: Mixed-type inhibition of Streptococcus pyogenes SrtA deltaN81 mutant expressed in Escherichia coli BL21(DE3) at 5 to 10 uM using Abz-LPETA-Dap(Dnp) as substrate preincubated for 10 mins followed by substrate addition measured every min for 2 hrs by fluorimetric assay relative to control

Structure (SMILES)	inhibition
Nc1[nH]c2cc(Cl)ccc2c1C(=O)N1CCOCC1	Active

Test system: not listed separately
Experiment: Binding affinity to NT-647 labeled Streptococcus pyogenes His-tagged SrtA deltaN81 mutant expressed in Escherichia coli BL21(DE3) by microscale thermophoresis method

Structure (SMILES)	Kd
Nc1[nH]c2cc(Cl)ccc2c1C(=O)N1CCOCC1	60 µM

Test system: Streptococcus pyogenes
Experiment: Induction of aggregation of NT-647 labeled Streptococcus pyogenes His-tagged SrtA deltaN81 mutant expressed in Escherichia coli BL21(DE3) by microscale thermophoresis method

Structure (SMILES)	Activity
Nc1[nH]c2cc(Cl)ccc2c1C(=O)N1CCOCC1	inactive
